Legend:
[1] = target: T1, Peroxisome proliferator-activated receptor alpha (Homo sapiens, UniProt Q07869); experiment: Agonist activity at human PPARalpha ligand binding domain expressed in human 293T cells co-transfected with Gal4-DBD by luciferase transactivation assay; type: cell-based; conditions: read-out: EC50
T1 sequence (Q07869 whole entry): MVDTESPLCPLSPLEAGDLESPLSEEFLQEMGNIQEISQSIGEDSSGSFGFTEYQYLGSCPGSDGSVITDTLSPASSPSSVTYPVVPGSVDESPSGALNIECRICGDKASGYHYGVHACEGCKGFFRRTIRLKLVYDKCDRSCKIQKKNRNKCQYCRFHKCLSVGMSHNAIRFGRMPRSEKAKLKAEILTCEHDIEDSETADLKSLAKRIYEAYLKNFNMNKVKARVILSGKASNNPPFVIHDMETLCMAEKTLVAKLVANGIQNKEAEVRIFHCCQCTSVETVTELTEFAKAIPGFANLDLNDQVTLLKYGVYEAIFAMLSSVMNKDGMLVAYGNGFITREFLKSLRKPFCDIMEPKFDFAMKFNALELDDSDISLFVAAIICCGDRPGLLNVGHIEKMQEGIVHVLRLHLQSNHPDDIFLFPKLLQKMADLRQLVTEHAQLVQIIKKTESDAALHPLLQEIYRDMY

[2] = target: T2, Peroxisome proliferator-activated receptor gamma (Homo sapiens, UniProt P37231); type: cell-based, 293T; conditions: read-out: EC50
T2 sequence (P37231 whole entry): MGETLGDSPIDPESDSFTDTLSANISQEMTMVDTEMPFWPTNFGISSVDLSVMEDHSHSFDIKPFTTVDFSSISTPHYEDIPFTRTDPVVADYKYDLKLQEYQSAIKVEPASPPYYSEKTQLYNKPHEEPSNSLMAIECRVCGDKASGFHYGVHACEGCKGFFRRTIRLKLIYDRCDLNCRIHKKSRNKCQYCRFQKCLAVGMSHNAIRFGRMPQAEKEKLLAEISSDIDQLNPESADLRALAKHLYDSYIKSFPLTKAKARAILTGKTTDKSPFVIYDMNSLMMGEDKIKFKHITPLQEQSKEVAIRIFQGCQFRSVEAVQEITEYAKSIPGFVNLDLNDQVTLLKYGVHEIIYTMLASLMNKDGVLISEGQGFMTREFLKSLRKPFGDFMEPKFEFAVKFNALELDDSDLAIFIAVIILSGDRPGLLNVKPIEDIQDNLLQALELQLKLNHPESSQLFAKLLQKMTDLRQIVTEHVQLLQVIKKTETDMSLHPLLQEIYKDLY

Mus musculus [3] = experiment: Upregulation of UCP3 expression in C57BL/6 mouse at 10 mg/kg, po qd relative to control; type: functional
Mus musculus [4] = experiment: Upregulation of PDK4 expression in C57BL/6 mouse at 10 mg/kg, po qd relative to control; type: functional
[5] = target: T3, Peroxisome proliferator-activated receptor delta (Homo sapiens, UniProt Q03181)
T3 sequence (Q03181 whole entry): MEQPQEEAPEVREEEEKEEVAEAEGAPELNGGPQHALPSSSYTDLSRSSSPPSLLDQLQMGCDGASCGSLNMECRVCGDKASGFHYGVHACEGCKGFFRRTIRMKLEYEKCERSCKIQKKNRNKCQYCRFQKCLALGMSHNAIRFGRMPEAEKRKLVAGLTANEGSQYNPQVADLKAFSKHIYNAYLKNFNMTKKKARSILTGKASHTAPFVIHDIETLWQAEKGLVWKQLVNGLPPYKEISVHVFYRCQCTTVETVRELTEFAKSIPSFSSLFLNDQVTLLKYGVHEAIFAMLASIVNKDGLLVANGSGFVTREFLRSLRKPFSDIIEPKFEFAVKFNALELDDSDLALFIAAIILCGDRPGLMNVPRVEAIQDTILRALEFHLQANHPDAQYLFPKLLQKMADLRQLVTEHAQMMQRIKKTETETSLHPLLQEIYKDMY

[6] = target: T3, Peroxisome proliferator-activated receptor delta; remark: listed apart in the source
[7] = Cmax in Balb/c mouse at 10 mg/kg, po qd; conditions: in vivo
[8] = Half life in Balb/c mouse at 10 mg/kg, po qd; conditions: in vivo
[9] = target: Peroxisome proliferator-activated receptor delta (Homo sapiens) (UniProt Q03181); experiment: Agonist activity at human PPARdelta by FRET assay
[10] = AUC ((0 to 24 hrs)) in Balb/c mouse at 10 mg/kg, po qd; conditions: plasma
[11] = Oral bioavailability in Balb/c mouse at 10 mg/kg daily; conditions: in vivo
[12] = target: T4, Peroxisome proliferator-activated receptor alpha (Homo sapiens) (UniProt Q07869); experiment: Agonist activity at human PPARalpha ligand binding domain expressed in human 293T cells co-transfected with Gal4-DBD by luciferase transactivation assay relative to KRP297; type: cell-based
T4 sequence (whole entry): T1 sequence (Q07869 whole entry)

Row | EC50 [1] | EC50 [2] | EC50 [5] | EC50 [6] | Cmax [7] | half-life [8] | AUC at 24 h [10] | Efficacy [12] | Compound | fold change (FC) (Mus musculus [3]) | fold change (FC) (Mus musculus [4]) | EC50 [9] | bioavailability [11]
1 | > 10000 nM | > 10000 nM | 8 nM | 10 nM | 13700 nM | 2.5 h | 96.8 µM·h | – | COc1ccc(-c2nc(COc3ccc(OCC(=O)O)c(C)c3)oc2-c2ccc(OC(F)(F)F)cc2)cn1 | 1.4 | 1.2 | 97 nM | 89%
2 | – | – | 11 nM | 13 nM | – | – | – | – | CCCc1ccc(-c2sc(COc3ccc(OCC(=O)O)c(C)c3)nc2-c2ccc(OC(C)C)cc2)cc1 | – | – | 17 nM | –
3 | 1150 nM | > 10000 nM | 18 nM | – | – | – | – | 43% | Cc1cc(OCc2nc(-c3ccc(C(=O)N4CCCCC4)cc3)c(-c3ccc(OC(F)(F)F)cc3)o2)ccc1OCC(=O)O | – | – | – | –
4 | – | – | 9 nM | 10 nM | 2200 nM | 2.7 h | 6.42 µM·h | – | CCCc1ccc(-c2oc(COc3ccc(OCC(=O)O)c(C)c3)nc2-c2cnc(OC)nc2)cc1 | 2.5 | 2 | 30 nM | 41%
5 | 5350 nM | 5660 nM | > 10000 nM | – | – | – | – | 64% | COc1ccc(-c2nc(SCCOc3ccc(OCC(=O)O)c(C)c3)sc2-c2ccc(OC)cc2)cc1 | – | – | – | –
6 | 4080 nM | > 10000 nM | 4060 nM | – | – | – | – | 5% | COc1ccc(-c2csc(COc3ccc(OCC(=O)O)c(C)c3)n2)cc1 | – | – | – | –
7 | 1990 nM | > 10000 nM | 3 nM | – | – | – | – | 38% | Cc1cc(OCc2nc(-c3cnc(N4CCOCC4)nc3)c(-c3ccc(OC(F)(F)F)cc3)s2)ccc1OCC(=O)O | – | – | – | –
8 | 5250 nM | 6890 nM | > 10000 nM | – | – | – | – | 62% | COc1ccc(-c2nc(SCCCOc3ccc(OCC(=O)O)c(C)c3)sc2-c2ccc(OC)cc2)cc1 | – | – | – | –
9 | > 10000 nM | > 10000 nM | 10 nM | – | – | – | – | – | CCCc1ccc(-c2oc(COc3ccc(OCC(=O)O)c(C)c3)nc2-c2ccc(OC)cc2)cc1 | – | – | – | –
10 | > 10000 nM | > 10000 nM | 70 nM | – | – | – | – | – | COc1ccc(-c2nc(COc3ccc(OCC(=O)O)c(C)c3)oc2-c2ccc(Cl)c(Cl)c2)cc1 | – | – | – | –
11 | > 10000 nM | > 10000 nM | 100 nM | – | – | – | – | – | COc1ccc(-c2nc(COc3ccc(OCC(=O)O)c(C)c3)sc2-c2ccc(OC)cc2)cc1 | – | – | – | –

The remaining lines, values behind:

Row | Compound | EC50 [1] | EC50 [2] | EC50 [5] | EC50 [6] | Cmax [7] | half-life [8] | AUC at 24 h [10] | Efficacy [12] | fold change (FC) (Mus musculus [3]) | fold change (FC) (Mus musculus [4]) | EC50 [9] | bioavailability [11]
12 | Cc1cc(SCc2sc(-c3ccc(C(F)(F)F)cc3)nc2C)ccc1OCC(=O)O [GW501516] | – | – | – | – | 3900 nM | 4.4 h | 29.8 µM·h | – | 3.2 | 2.5 | – | –
13 | Cc1cc(OCc2nc(-c3ccc(-c4ccccc4)cc3)cs2)ccc1OCC(=O)O | 480 nM | > 10000 nM | 340 nM | – | – | – | – | 42% | – | – | – | –
14 | Cc1cc(OCc2nc(-c3cnc(N4CCOCC4)nc3)c(-c3ccc(OC(F)(F)F)cc3)o2)ccc1OCC(=O)O | 410 nM | 1030 nM | 1 nM | – | – | – | – | 69% | – | – | – | –
15 | Cc1cc(OCc2nc(-c3ccc(OC4CCCC4)cc3)c(-c3ccc(OC(F)(F)F)cc3)s2)ccc1OCC(=O)O | > 10000 nM | > 10000 nM | 10 nM | 15 nM | 1200 nM | 7.6 h | 16.1 µM·h | – | 2.8 | 1.9 | 31 nM | 19%
16 | Cc1cc(OCc2nc(-c3ccc(OC(C)C)cc3)c(-c3ccc(C(F)(F)F)cc3)s2)ccc1OCC(=O)O | – | – | 11 nM | 16 nM | 2800 nM | 3.9 h | 37.3 µM·h | – | 1.7 | 1.1 | 20 nM | 70%
17 | Cc1cc(OCc2nc(-c3ccc(N4CCOCC4)cc3)c(-c3ccc(-c4ccccc4)cc3)s2)ccc1OCC(=O)O | – | – | 18 nM | 14 nM | 2700 nM | 5.1 h | 31.9 µM·h | – | 2.5 | 1.4 | 72 nM | 30%
18 | Cc1cc(OCc2nc(-c3ccc(N4CCCCC4)cc3)c(-c3ccc(OC(F)(F)F)cc3)s2)ccc1OCC(=O)O | 5200 nM | > 10000 nM | 52 nM | – | – | – | – | 9% | – | – | – | –
19 | Cc1cc(OCc2nc(-c3ccc(C(=O)N(C)C(C)C)cc3)c(-c3ccc(OC(F)(F)F)cc3)s2)ccc1OCC(=O)O | 690 nM | 1200 nM | 2 nM | – | – | – | – | 65% | – | – | – | –
20 | CCOC(Cc1ccc(OCc2nc(-c3ccc(OC)cc3)c(-c3ccc(C(F)(F)F)cc3)s2)cc1)C(=O)O (stereo not drawn) | 1090 nM | 1310 nM | 1870 nM | – | – | – | – | 37% | – | – | – | –
21 | Cc1cc(OCc2nc(-c3ccc(OC(C)C)cc3)c(-c3cccc(OC(F)(F)F)c3)s2)ccc1OCC(=O)O | – | – | 9 nM | 16 nM | 2400 nM | 3.2 h | 20.3 µM·h | – | 1.9 | 1.7 | 46 nM | 49%
22 | Cc1cc(OCc2nc(-c3ccc(C(=O)N4CCCCC4)cc3)c(-c3ccc(OC(F)(F)F)cc3)s2)ccc1OCC(=O)O | 1590 nM | 1560 nM | 6 nM | – | – | – | – | 55% | – | – | – | –
23 | COc1ccc(-c2nc(SCCCCOc3ccc(OCC(=O)O)c(C)c3)sc2-c2ccc(OC)cc2)cc1 | 2370 nM | 6360 nM | > 10000 nM | – | – | – | – | 89% | – | – | – | –
24 | Cc1cc(OCc2nc(-c3ccc(C(=O)N(C)C(C)C)cc3)c(-c3ccc(OC(F)(F)F)cc3)o2)ccc1OCC(=O)O | 700 nM | 600 nM | 1 nM | – | – | – | – | 49% | – | – | – | –
25 | Cc1cc(OCc2nc(-c3ccc(OC(C)C)cc3)c(-c3ccc(-c4ccccc4)cc3)s2)ccc1OCC(=O)O | – | – | 9 nM | 10 nM | – | – | – | – | 2.4 | 1.5 | 29 nM | –
26 | Cc1cc(OCc2nc(-c3ccc(N4CCOCC4)nc3)c(-c3ccc(OC(F)(F)F)cc3)o2)ccc1OCC(=O)O | 1200 nM | 2490 nM | 2 nM | – | 700 nM | 3.8 h | 1.95 µM·h | 46% | – | – | 5 nM | 18%
27 | Cc1cc(OCc2nc(-c3ccc(C(F)(F)F)cc3)c(C)s2)ccc1OCC(=O)O | > 10000 nM | > 10000 nM | 2400 nM | – | – | – | – | – | – | – | – | –
28 | Cc1cc(OCc2nc(-c3cccnc3)c(-c3ccc(-c4ccccc4)cc3)o2)ccc1OCC(=O)O | – | – | 8 nM | 6 nM | 400 nM | 4 h | 0.814 µM·h | – | – | – | 30 nM | 10%
29 | Cc1cc(OCc2nc(-c3cnc(OC(C)C)nc3)c(-c3ccc(OC(F)(F)F)cc3)o2)ccc1OCC(=O)O | 160 nM | 980 nM | 1 nM | – | – | – | – | 82% | – | – | – | –
30 | Cc1cc(OCc2nc(-c3ccc(NS(C)(=O)=O)cc3)c(-c3ccc(OC(F)(F)F)cc3)s2)ccc1OCC(=O)O | > 10000 nM | > 10000 nM | 775 nM | – | – | – | – | – | – | – | – | –
